US20200206198A1, “CFTR CHANNEL ACTIVATOR FOR USE IN THE TREATMENT AND/OR PREVENTION OF GLUTEN SENSITIVITY CONDITIONS” (priority 2017, published 2020)

System: Caco-2 cells
Test: P31-43-induced epithelial stress markers in Caco-2 cells (immunoblot)
Type: cell-based, human
Method: Human colon adenocarcinoma-derived Caco-2 and T84 cells were obtained from the ATCC. Cells were maintained in T25 flask in Modified Eagle Medium (MEM) for Caco-2, or Ham's F12+DMEM (1:1) for T84, supplemented with 10% fetal bovine serum (FBS), 2 mM Glutamine+1% Non Essential Amino Acids (NEAA) and the antibiotics penicillin\streptomycin (100 units/ml) (all reagents from Lonza) (Luciani, A., et al. 2010. Cells were grown in Transwells (Corning, 3470 or 3460) under the normal condition (Luciani, A., et al. 2012). Briefly, 8×10^4 or 5×10^5 cells were seeded in 6.5-mm diameter or 12-mm diameter, respectively, and grown until the RT reached 800 to 1,200 Ω·cm2. Transwells with a pore size of 0.4 μm were used. Medium in both the apical and basolateral chambers was changed every other day. Cells were treated with 20 μg/ml of either α-gliadin peptide P31-43 or […]-69 or scrambled PGAV or modified P31-43 either biotin-tagged or not, for different time point (from 1 h short challenge up to 24 h). Cells were also treated with 50 or 100 μg/ml of […]-68 or PGAV peptides for 3 h. Caco-2 or T84 cells were also treated with: CFTR potentiators VX-770 (10 μM) or VX-532 (20 μM) (Selleck chemicals) or Genistein (10 μM) (Sigma-Aldrich) or in presence or absence of CFTR inhibitor172 (CFTRinh172, 20 μM) or 3-methyl-adenine (3-MA, 20 μM) (Calbiochem), Z-DON (20 nM, Zedira) or BAPTA-AM (10 μM, Calbiochem). The whole lysate or membrane fraction proteins of cell lines and mice intestine homogenates were obtained from treated and untreated cells or mice as described. The equal amount of protein were resolved by SDS-PAGE gel and blotted with antibodies against: SQSTM1, (Sigma Aldrich, 108k4767) 1:1000, PPARγ (Santa Cruz Biotechnology, sc7273) 1:500, BECN1 (Abcam, ab58878) 1:1000, CFTR clone M3A7 (Abcam, ab4067) 1:500, phospho-ERK1/2 (php42/44, Cell Signaling Technology, #91101) 1:1000, UVRAG (Santa Cruz Biotechnology sc8215) 1:1000, NHERF-1 (BD, 611161) 1:1000, EZRIN (BD, 610603) 1:1000, hVps34 (SigmaV9764) 1:300, biotin (Abcam, ab1227) 1:2000, PKAr2a (BD, 610625) 1:500, Ubiquitin (Cell Signaling clone P4D1, #3936) 1:1000, CHIP (Calbiochem PC711) 1:500, Caspase-1 p10 (M-20) (Santa Cruz Biotechnology, sc-514) 1:200, NLRP3 (Abcam, ab4207), 1:500, IDO1 (monoclonal; cv152) 1:1000^[80], used as primary antibodies. Normalization was performed by probing the membrane with anti-β-actin (Cell Signaling, #4970) 1:1000, anti-Gapdh (Sigma-Aldrich, G8795) 1:1000 and anti-flottilin (Abcam ab15148) 1:1000 antibodies. Immunoprecipitations of endogenous proteins were performed on 500 μg of lysates from Caco-2 cells. The proteins were incubated for 12-18 h at 4° C. with 10 ug\ml of specific antibody followed by the addition of Protein A/G-agarose beads for 4 h at 4° C. The beads were then washed three times with lysis buffer and Laemmli's sample buffer was added to the samples. The membranes were then blotted with: CFTR clone CF3 (Abcam, ab2784) 1:1000, TG2 (clone CUB7402; NeoMarkers) 1:1000, CHIP (Calbiochem PC711) 1:500, Ubiquitin (Cell Signaling clone P4D1 3936), isopeptide (Abcam 422) 1:1000, PKAR2 (BD 610625) 1:500. FIG. 5: a, Immunoprecipitation of TG2 protein 15 in Caco-2 cells challenged with […]-68, PGAV or P31-43 and blotted with HRP-streptavidin. b, Immunoprecipitation of CFTR protein in Caco-2 cells challenged with P31-43 in the presence of absence of the TG2 inhibitor ZDON or TG2 RNA silencing and 20 blotted with anti-isopeptide glutamime-lysine and anti-TG2 antibodies. c, Recombinant TG2 and/or NBD1 incubated in vitro with P31-43 and solved in native page in the presence or absence of Ca2+. d, Immunoprecipitation of CFTR protein and immunblot with anti-CFTR antibodies or anti-TG2 antibodies. e, Immunoprecipitation of CFTR protein and immunoblot with anti-TG2 or anti-CFTR antibodies; effects of ZDON and BAPTA-AM. f, In situ detection of TG2 activity in Caco-2 cells pulsed with Ca2+ in the presence or absence of VX-770 or Z-DON. […]

Row | Compound | effect on P31-43-induced PKAr2a cross-linking and phospho-PKA decrease | protection from P31-43-induced downregulation of PPARγ | protection from P31-43-induced phosphorylation of ERK-1/2 | protection from P31-43-induced upregulation of HSP70 expression | TG2-mediated cross-linking of PKAr2a | abundance of phosphorylated PKA protein
1 | CC(C)(C)c1cc(C(C)(C)C)c(NC(=O)c2c[nH]c3ccccc3c2=O)cc1O [VX-770, N-(2,4-di-tert-butyl-5-hydroxyphenyl)-4-oxo-1,4-dihydroquinoline-3-carboxamide] | counteracted all these TG2-mediated effects of P31-43 | protected | protected | protected | – | –
2 | α-gliadin peptide LGQQQPFPPQQPY (SEQ ID 1), induces an enterocyte stress response (P31-43 sequence of alpha-gliadin) | – | – | – | – | stimulated TG2-mediated cross-linking | decrease in the abundance of phosphorylated PKA protein
